Assay results: US12281080B2, “Quinoline-based compounds and methods of inhibiting CDK8/19” (University of South Carolina, priority 2018, dated 2025)

How the values were obtained:
[1] = target: BTK (Homo sapiens (Human), UniProt Q06187); assay: KINOMEscan scanMAX; type: binding; settings: 2000 nM; read-out: Percent Control
[2] = target: RSK2(Kin.Dom.1-N-terminal) (RPS6KA3) (Homo sapiens (Human), UniProt P51812); assay: KINOMEscan scanMAX; type: binding; settings: 2000 nM; read-out: Percent Control
[3] = target: EGFR(E746-A750del) (Homo sapiens (Human), UniProt P00533, DEL746-750); assay: KINOMEscan scanMAX; type: binding; settings: 2000 nM; read-out: Percent Control
[4] = target: MYO3B (Homo sapiens (Human), UniProt Q8WXR4); assay: KINOMEscan scanMAX; type: binding; settings: 2000 nM; read-out: Percent Control
[5] = target: MKNK2 (Homo sapiens (Human), UniProt Q9HBH9); assay: KINOMEscan scanMAX; type: binding; settings: 2000 nM; read-out: Percent Control
[6] = target: ABL1(F317L)-nonphosphorylated (Homo sapiens (Human), UniProt P00519, F317L); assay: KINOMEscan scanMAX; type: binding; settings: 2000 nM; read-out: Percent Control
[7] = target: KIT-autoinhibited (Homo sapiens (Human), UniProt P10721); assay: KINOMEscan scanMAX; type: binding; settings: 2000 nM; read-out: Percent Control
[8] = target: ABL1(Q252H)-nonphosphorylated (Homo sapiens (Human), UniProt P00519, Q252H); assay: KINOMEscan scanMAX; type: binding; settings: 2000 nM; read-out: Percent Control
[9] = target: DLK (MAP3K12) (Homo sapiens (Human), UniProt Q12852); assay: KINOMEscan scanMAX; type: binding; settings: 2000 nM; read-out: Percent Control
[10] = target: AXL (Homo sapiens (Human), UniProt P30530); assay: KINOMEscan scanMAX; type: binding; settings: 2000 nM; read-out: Percent Control
[11] = target: ERK4 (MAPK4) (Homo sapiens (Human), UniProt P31152); assay: KINOMEscan scanMAX; type: binding; settings: 2000 nM; read-out: Percent Control
[12] = target: MAP3K1 (Homo sapiens (Human), UniProt Q13233); assay: KINOMEscan scanMAX; type: binding; settings: 2000 nM; read-out: Percent Control
[13] = target: CSNK1A1L (Homo sapiens (Human), UniProt Q8N752); assay: KINOMEscan scanMAX; type: binding; settings: 2000 nM; read-out: Percent Control
[14] = target: MKK7 (MAP2K7) (Homo sapiens (Human), UniProt O14733); assay: KINOMEscan scanMAX; type: binding; settings: 2000 nM; read-out: Percent Control
[15] = target: PIK3CA(E545A) (Homo sapiens (Human), UniProt P42336, E545A); assay: KINOMEscan scanMAX; type: binding; settings: 2000 nM; read-out: Percent Control
[16] = target: SGK2 (Homo sapiens (Human), UniProt Q9HBY8); assay: KINOMEscan scanMAX; type: binding; settings: 2000 nM; read-out: Percent Control
[17] = target: MINK (MINK1) (Homo sapiens (Human), UniProt Q8N4C8); assay: KINOMEscan scanMAX; type: binding; settings: 2000 nM; read-out: Percent Control
[18] = target: MARK2 (Homo sapiens (Human), UniProt Q7KZI7); assay: KINOMEscan scanMAX; type: binding; settings: 2000 nM; read-out: Percent Control
[19] = target: CLK2 (Homo sapiens (Human), UniProt P49760); assay: KINOMEscan scanMAX; type: binding; settings: 2000 nM; read-out: Percent Control
[20] = target: MTOR (Homo sapiens (Human), UniProt P42345); assay: KINOMEscan scanMAX; type: binding; settings: 2000 nM; read-out: Percent Control
[21] = target: MARK1 (Homo sapiens (Human), UniProt Q9P0L2); assay: KINOMEscan scanMAX; type: binding; settings: 2000 nM; read-out: Percent Control
[22] = target: PIK3CA(E545K) (Homo sapiens (Human), UniProt P42336, E545K); assay: KINOMEscan scanMAX; type: binding; settings: 2000 nM; read-out: Percent Control
[23] = target: KIT(V559D, T670I) (Homo sapiens (Human), UniProt P10721, T670I/V559D); assay: KINOMEscan scanMAX; type: binding; settings: 2000 nM; read-out: Percent Control
[24] = target: DMPK (Homo sapiens (Human), UniProt Q09013); assay: KINOMEscan scanMAX; type: binding; settings: 2000 nM; read-out: Percent Control
[25] = target: CAMK1 (Homo sapiens (Human), UniProt Q14012); assay: KINOMEscan scanMAX; type: binding; settings: 2000 nM; read-out: Percent Control
[26] = target: RIPK1 (Homo sapiens (Human), UniProt Q13546); assay: KINOMEscan scanMAX; type: binding; settings: 2000 nM; read-out: Percent Control
[27] = system: HL60-Luc cells; assay: HL60-Luc proliferation assay (BLI); type: cell-based; settings: HL-60-Luc, 168 h; 7 days
Description: The anti-leukemic activity was also evaluated with a HL60 assay. The HL60 assay was performed by a similar procedure as MV4-11 assay. A derivative of the HL-60 leukemia cell line was generated to express Luciferase and ZsGreen by lentiviral infection with pHIV-Luc-ZsGreen, to enable leukemia growth analysis by bioluminescence imaging (BLI). The initial Luciferase-ZsGreen transduced cell population was sorted for ZsGreen positivity with fluorescence activated cell sorting and individual clones were tested for luciferase expression. […] The HL-60 assay was performed in 96-well plates by treating the HL60-Luc cells with testing compounds at different concentrations for 7 days, followed by BLI to quantify the effects of test articles on cell proliferation.

[28] = target: PLK1 (Homo sapiens (Human), UniProt P53350); assay: KINOMEscan scanMAX; type: binding; settings: 2000 nM; read-out: Percent Control
[29] = target: GRK1 (Homo sapiens (Human), UniProt Q15835); assay: KINOMEscan scanMAX; type: binding; settings: 2000 nM; read-out: Percent Control
[30] = target: ABL2 (Homo sapiens (Human), UniProt P42684); assay: KINOMEscan scanMAX; type: binding; settings: 2000 nM; read-out: Percent Control
[31] = target: MYO3A (Homo sapiens (Human), UniProt Q8NEV4); assay: KINOMEscan scanMAX; type: binding; settings: 2000 nM; read-out: Percent Control
[32] = target: CDK2 (Homo sapiens (Human), UniProt P24941); assay: KINOMEscan scanMAX; type: binding; settings: 2000 nM; read-out: Percent Control
[33] = target: ZAK (Homo sapiens (Human), UniProt Q9NYL2); assay: KINOMEscan scanMAX; type: binding; settings: 2000 nM; read-out: Percent Control
[34] = target: PIP5K1C (Homo sapiens (Human), UniProt O60331); assay: KINOMEscan scanMAX; type: binding; settings: 2000 nM; read-out: Percent Control
[35] = target: PCTK2 (CDK17) (Homo sapiens (Human), UniProt Q00537); assay: KINOMEscan scanMAX; type: binding; settings: 2000 nM; read-out: Percent Control
[36] = target: JNK1 (MAPK8) (Homo sapiens (Human), UniProt P45983); assay: KINOMEscan scanMAX; type: binding; settings: 2000 nM; read-out: Percent Control

PLK1, sequence (P53350 whole entry): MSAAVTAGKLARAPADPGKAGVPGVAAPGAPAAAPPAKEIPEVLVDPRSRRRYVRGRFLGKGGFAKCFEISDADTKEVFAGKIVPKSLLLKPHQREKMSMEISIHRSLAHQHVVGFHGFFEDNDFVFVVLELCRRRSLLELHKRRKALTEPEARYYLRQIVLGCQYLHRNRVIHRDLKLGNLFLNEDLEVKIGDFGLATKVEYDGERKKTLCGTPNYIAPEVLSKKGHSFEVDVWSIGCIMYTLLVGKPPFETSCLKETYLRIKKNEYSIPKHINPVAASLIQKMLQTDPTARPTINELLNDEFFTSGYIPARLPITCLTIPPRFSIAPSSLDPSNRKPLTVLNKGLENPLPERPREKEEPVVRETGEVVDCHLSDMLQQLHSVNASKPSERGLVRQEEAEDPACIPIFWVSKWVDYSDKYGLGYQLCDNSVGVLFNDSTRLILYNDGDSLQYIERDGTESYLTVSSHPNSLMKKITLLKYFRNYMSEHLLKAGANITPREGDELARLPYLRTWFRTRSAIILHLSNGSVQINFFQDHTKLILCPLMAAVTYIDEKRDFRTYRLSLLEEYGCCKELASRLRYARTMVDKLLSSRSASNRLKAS
MARK2, sequence (Q7KZI7 whole entry): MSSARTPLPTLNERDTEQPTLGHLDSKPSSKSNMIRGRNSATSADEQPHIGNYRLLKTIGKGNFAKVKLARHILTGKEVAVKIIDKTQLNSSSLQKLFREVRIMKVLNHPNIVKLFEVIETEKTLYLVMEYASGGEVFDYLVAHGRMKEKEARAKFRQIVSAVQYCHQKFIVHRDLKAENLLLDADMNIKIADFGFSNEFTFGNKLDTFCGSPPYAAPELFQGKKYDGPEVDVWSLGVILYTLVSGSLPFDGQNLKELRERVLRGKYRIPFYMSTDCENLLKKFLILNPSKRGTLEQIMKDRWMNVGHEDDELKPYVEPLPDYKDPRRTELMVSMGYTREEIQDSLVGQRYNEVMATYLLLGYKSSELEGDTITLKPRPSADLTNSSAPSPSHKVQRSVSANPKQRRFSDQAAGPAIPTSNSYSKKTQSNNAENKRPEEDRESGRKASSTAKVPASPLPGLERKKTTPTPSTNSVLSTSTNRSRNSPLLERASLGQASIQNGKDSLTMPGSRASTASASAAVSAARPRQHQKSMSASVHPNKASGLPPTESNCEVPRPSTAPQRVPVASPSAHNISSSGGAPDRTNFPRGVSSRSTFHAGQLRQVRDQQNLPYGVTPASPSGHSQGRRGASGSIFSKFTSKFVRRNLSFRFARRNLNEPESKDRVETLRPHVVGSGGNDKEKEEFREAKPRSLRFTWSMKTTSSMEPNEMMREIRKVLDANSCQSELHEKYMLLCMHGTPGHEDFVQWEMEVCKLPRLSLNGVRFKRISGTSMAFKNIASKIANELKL
MINK (MINK1), sequence (Q8N4C8 whole entry): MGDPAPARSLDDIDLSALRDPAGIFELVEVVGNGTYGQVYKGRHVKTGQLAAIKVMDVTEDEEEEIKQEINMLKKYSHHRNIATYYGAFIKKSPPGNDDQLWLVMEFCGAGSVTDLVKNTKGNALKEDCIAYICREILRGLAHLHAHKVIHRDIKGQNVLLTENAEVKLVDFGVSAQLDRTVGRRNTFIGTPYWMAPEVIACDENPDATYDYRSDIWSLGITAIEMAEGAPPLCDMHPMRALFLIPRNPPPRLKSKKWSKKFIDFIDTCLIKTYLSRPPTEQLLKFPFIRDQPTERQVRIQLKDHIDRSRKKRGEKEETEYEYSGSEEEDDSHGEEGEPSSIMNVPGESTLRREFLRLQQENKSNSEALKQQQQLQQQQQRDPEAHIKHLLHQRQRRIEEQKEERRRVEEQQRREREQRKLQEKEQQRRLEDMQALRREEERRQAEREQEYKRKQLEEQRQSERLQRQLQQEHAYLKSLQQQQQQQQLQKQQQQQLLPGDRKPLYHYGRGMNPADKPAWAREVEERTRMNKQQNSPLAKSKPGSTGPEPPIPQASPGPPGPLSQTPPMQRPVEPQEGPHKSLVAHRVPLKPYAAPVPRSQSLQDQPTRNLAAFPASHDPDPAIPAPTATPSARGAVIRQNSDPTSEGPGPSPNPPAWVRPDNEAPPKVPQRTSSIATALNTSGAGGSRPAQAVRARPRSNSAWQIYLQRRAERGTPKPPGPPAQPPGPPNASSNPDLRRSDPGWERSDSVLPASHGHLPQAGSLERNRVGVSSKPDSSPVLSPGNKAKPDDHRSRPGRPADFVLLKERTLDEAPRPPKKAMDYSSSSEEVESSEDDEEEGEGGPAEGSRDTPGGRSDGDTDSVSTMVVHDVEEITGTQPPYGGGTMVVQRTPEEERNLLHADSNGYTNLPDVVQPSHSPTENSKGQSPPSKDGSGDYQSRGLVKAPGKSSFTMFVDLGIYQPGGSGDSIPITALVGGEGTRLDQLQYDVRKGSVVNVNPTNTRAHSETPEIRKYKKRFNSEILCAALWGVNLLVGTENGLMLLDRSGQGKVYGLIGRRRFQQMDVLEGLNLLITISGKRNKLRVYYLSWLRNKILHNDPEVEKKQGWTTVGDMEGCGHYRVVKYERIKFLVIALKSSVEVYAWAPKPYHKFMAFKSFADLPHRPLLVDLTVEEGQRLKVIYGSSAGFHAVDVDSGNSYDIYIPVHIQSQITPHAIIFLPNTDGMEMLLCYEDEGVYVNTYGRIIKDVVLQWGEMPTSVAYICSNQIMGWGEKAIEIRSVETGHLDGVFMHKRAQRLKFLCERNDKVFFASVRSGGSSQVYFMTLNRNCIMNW
AXL, sequence (P30530 26-894): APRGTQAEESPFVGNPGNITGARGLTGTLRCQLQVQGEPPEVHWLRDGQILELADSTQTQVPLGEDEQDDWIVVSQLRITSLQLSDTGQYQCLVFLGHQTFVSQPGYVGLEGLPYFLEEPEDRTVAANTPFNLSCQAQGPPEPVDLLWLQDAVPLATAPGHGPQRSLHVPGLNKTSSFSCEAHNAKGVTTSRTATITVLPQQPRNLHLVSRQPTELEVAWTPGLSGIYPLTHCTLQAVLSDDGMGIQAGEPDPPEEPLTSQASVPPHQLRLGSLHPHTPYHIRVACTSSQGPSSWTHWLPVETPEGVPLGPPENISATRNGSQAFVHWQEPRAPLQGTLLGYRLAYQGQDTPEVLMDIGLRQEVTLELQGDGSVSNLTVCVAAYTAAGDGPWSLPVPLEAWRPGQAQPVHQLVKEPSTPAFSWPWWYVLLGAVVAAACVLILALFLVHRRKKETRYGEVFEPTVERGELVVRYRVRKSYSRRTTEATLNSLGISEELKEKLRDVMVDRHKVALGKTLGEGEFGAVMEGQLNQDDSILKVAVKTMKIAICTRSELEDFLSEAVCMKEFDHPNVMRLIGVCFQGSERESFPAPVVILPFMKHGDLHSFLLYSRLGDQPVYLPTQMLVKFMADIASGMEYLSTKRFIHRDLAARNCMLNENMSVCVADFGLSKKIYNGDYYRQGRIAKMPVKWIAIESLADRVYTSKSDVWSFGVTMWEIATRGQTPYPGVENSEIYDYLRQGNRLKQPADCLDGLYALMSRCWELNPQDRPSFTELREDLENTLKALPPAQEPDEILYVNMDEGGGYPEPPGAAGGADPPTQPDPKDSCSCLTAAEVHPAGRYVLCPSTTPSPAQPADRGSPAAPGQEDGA
CSNK1A1L, sequence (Q8N752 whole entry): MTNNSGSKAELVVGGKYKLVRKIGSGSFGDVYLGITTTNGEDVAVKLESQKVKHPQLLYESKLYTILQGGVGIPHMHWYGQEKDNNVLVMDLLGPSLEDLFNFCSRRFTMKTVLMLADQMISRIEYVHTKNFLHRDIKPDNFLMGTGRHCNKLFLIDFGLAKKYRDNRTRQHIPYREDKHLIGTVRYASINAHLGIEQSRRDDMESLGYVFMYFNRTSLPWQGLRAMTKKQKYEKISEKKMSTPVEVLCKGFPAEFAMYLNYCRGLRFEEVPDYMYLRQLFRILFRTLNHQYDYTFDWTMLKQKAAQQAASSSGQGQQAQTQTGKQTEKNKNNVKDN
SGK2, sequence (Q9HBY8 whole entry): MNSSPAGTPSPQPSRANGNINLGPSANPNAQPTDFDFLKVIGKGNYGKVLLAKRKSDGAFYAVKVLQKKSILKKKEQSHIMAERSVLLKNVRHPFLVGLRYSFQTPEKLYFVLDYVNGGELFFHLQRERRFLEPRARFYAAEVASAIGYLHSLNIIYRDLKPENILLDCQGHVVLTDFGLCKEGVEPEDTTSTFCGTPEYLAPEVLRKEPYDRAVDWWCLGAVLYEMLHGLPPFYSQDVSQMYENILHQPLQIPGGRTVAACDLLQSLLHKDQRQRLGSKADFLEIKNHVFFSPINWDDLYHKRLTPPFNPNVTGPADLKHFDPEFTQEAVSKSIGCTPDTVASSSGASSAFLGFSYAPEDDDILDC
BTK, sequence (Q06187 whole entry): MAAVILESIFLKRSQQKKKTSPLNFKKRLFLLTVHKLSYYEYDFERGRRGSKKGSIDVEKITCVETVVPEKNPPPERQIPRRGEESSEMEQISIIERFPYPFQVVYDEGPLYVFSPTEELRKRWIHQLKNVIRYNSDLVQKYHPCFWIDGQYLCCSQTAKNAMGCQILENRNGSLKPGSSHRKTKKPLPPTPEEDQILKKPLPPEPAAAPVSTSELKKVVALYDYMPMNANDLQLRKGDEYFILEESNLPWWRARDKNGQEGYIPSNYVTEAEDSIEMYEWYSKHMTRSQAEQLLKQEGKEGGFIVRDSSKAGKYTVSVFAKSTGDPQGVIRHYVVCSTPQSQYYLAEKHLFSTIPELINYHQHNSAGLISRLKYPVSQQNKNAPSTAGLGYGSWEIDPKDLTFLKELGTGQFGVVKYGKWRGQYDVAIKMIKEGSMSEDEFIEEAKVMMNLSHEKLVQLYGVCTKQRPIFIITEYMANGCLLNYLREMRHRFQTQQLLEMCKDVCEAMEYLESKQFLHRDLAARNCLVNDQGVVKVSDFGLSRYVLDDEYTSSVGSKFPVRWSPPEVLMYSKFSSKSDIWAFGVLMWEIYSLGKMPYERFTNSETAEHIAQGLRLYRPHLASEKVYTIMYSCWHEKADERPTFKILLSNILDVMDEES

`CN1CCN(C(=O)c2ccc3cc(CCNc4ccnc5ccc(C#N)cc45)ccc3c2)CC1` [compound 6148, 4-((2-(6-(4-methylpiperazine-1-carbonyl)naphthalen-2-yl)ethyl)amino)quinoline-6-carbonitrile] was tested, and the remaining binding at 2 µM [1] was 78%, the remaining binding at 2 µM [2] was 62% and the remaining binding at 2 µM [3] was 100%. For the same molecule, the remaining binding at 2 µM [4] was 31%, the remaining binding at 2 µM [5] was 71% and the remaining binding at 2 µM [6] was 93%. It also gave a remaining binding at 2 µM [7] of 88%, a remaining binding at 2 µM [8] of 73% and a remaining binding at 2 µM [9] of 68%. It also gave a remaining binding at 2 µM [10] of 95%, a remaining binding at 2 µM [11] of 87% and a remaining binding at 2 µM [12] of 78%. It also gave a remaining binding at 2 µM [13] of 88%, a remaining binding at 2 µM [14] of 75% and a remaining binding at 2 µM [15] of 73%. For the same molecule, the remaining binding at 2 µM [16] was 61%, the remaining binding at 2 µM [17] was 56% and the remaining binding at 2 µM [18] was 100%. It also gave a remaining binding at 2 µM [19] of 93%, a remaining binding at 2 µM [20] of 79% and a remaining binding at 2 µM [21] of 81%. It also gave a remaining binding at 2 µM [22] of 55%, a remaining binding at 2 µM [23] of 90% and a remaining binding at 2 µM [24] of 98%. It also gave a remaining binding at 2 µM [25] of 84%, a remaining binding at 2 µM [26] of 100% and an IC50 [27] of 114 nM. For the same molecule, the remaining binding at 2 µM [28] was 63%, the remaining binding at 2 µM [29] was 63% and the remaining binding at 2 µM [30] was 93%. For the same molecule, the remaining binding at 2 µM [31] was 100%, the remaining binding at 2 µM [32] was 95% and the remaining binding at 2 µM [33] was 94%. For the same molecule, the remaining binding at 2 µM [34] was 87%, the remaining binding at 2 µM [35] was 98% and the remaining binding at 2 µM [36] was 54%.
